Reference: publication PMC12562321 (2025)

Legend:
[1] = test system: OA31 (DNA, aptamer) CCACCAACGAGAGTCAGAAAACCATGGTGGG; assay: electrochemical aptasensor (DPV); settings: 150 mM NaCl, 2 mM Mg2+, capture probe P31_14
[2] = test system: OA63 (DNA, aptamer) CCGGGTGGGTGGGTGTGGTCTTGTATTTGATTATGTCTGTCGGCGCTTTTTGGCCCCTTCGTT; assay: electrochemical aptasensor (DPV); settings: 150 mM NaCl, 2 mM Mg2+; 50 mM Tris pH 7.5, 25 °C, 30 min; capture probe P63_8; 5-200 nM OA

| binding ([1]; 50 mM Tris pH 7.5, 4 °C, 5 min, 5-200 nM OA) | binding [2] | binding ([1]; 50 mM Tris pH 7.5, sensitivity 2 times lower than for OA) | SMILES |
| --- | --- | --- | --- |
| yes | yes | – | C=C1[C@@H](O)[C@@H]2O[C@]3(CC[C@H](/C=C/[C@@H](C)[C@@H]4CC(C)=C[C@@]5(O[C@H](C[C@@](C)(O)C(=O)O)CC[C@H]5O)O4)O3)CC[C@H]2O[C@@H]1[C@@H](O)C[C@H](C)[C@H]1O[C@@]2(CCCCO2)CC[C@H]1C |
| – | – | yes | C=C1[C@@H](O)[C@@H]2O[C@]3(CC[C@H](/C=C/[C@@H](C)[C@@H]4CC(C)=C[C@@]5(O[C@H](C[C@@](C)(O)C(=O)O)CC[C@H]5O)O4)O3)CC[C@H]2O[C@@H]1[C@@H](O)C[C@H](C)[C@H]1O[C@@]2(CC[C@H]1C)OCCC[C@H]2C |
